Patent publication US8754115B2, “Fungicidal pyrazoles” (E I du Pont de Nemours and Company, priority 2010, dated 2014)
Marks after values point to notes of the source that are not given here.

Tests used:
Format in all cases: in vivo
[1] = system: Puccinia recondite f. sp. tritici; assay: Test E2: preventive spray on wheat seedlings, visual disease rating (wheat leaf rust)
From the text: (§1) General protocol for preparing test suspensions for Tests A-F: the test compounds were first dissolved in acetone in an amount equal to 3% of the final volume and then suspended at the desired concentration (in ppm) in acetone and purified water (50/50 mix by volume) containing 250 ppm of the surfactant Trem® 014 (polyhydric alcohol esters). The resulting test suspensions were then used in Tests A-F. Spraying a 200 ppm test suspension to the point of run-off on the test plants was the equivalent of a rate of 800 g/ha. Unless otherwise indicated, the rating values indicate a 200 ppm test suspension was used. (An asterisk “*” next to the rating value indicates a 40 ppm test suspension was used.)
The test suspension was sprayed to the point of run-off on wheat seedlings. The following day the seedlings were inoculated with a spore suspension of Puccinia recondite f. sp. tritici (the causal agent of wheat leaf rust) and incubated in a saturated atmosphere at 20° C. for 24 h, and then moved to a growth chamber at 20° C. for 7 days, after which time visual disease ratings were made.
(§2) Results for Tests A-F are given in Table A. In the Table, a rating of 100 indicates 100% disease control and a rating of 0 indicates no disease control (relative to the controls). A dash (-) indicates no test results. An asterisk “*” next to the rating value indicates a 40 ppm test suspension was used.

Botrytis cinerea = assay: Test A: preventive spray on tomato seedlings, visual disease rating (tomato Botrytis)
From the text: as §1
(§3) The test suspension was sprayed to the point of run-off on tomato seedlings. The following day the seedlings were inoculated with a spore suspension of Botrytis cinerea (the causal agent of tomato Botrytis) and incubated in saturated atmosphere at 20° C. for 48 h, and then moved to a growth chamber at 24° C. for 3 days, after which time visual disease ratings were made.
as §2

Septoria tritici = assay: Test D: preventive spray on wheat seedlings, visual disease rating (wheat leaf blotch)
From the text: as §1
as §3, with “wheat” for “tomato”, “Septoria tritici” for “Botrytis cinerea”, “wheat leaf blotch)” for “tomato Botrytis)”, “24°” for “20°”, “20°” for “24°”, “19” for “3”
as §2

[2] = system: Blumeria graminis f. sp. tritici; assay: Test F: preventive spray on wheat seedlings, visual disease rating (wheat powdery mildew)
From the text: as §1
The test suspension was sprayed to the point of run-off on wheat seedlings. The following day the seedlings were inoculated with a spore dust of Blumeria graminis f. sp. tritici, (also known as Erysiphe graminis f. sp. tritici, the causal agent of wheat powdery mildew) and incubated in a growth chamber at 20° C. for 8 days, after which time visual disease ratings were made.
as §2

[3] = no asterisk: standard test suspension, not 40 ppm
[4] = no asterisk: standard test suspension, not 40 ppm, 100 = 100% disease control, 0 = none
[5] = asterisk: 40 ppm test suspension

Compound	Test E2 rating (% disease control) [1, 3]	Test A rating (% disease control) (Botrytis cinerea; [4])	Test D rating (% disease control) (Septoria tritici; [3])	Test F rating (% disease control) [2, 3]	Test E2 rating (% disease control) [1, 5]	Test D rating (% disease control) (Septoria tritici; [5])	Test A rating (% disease control) (Botrytis cinerea; [5])	Test F rating (% disease control) [2, 5]
COc1nn(C)c(-c2c(F)cccc2F)c1C(O)c1ccc(F)cc1Cl (stereo not shown) [compound 126]	100%	100%	100%	100%	–	–	–	–
CCOc1nn(C)c(-c2c(F)cccc2F)c1C(O)c1ccc(F)cc1Cl (stereo not shown) [compound 127]	91%	76%	100%	99%	–	–	–	–
Cc1cc(F)ccc1C(O)c1c(C)nn(C)c1-c1c(F)cccc1F (stereo not shown) [compound 129]	99%	100%	100%	100%	–	–	–	–
Cn1ncc(C(O)c2ccc(F)cc2Cl)c1-c1c(F)cccc1F (stereo not shown) [compound 130]	100%	100%	100%	100%	–	–	–	–
Cn1nc(Br)c(C(O)c2ccc(F)cc2F)c1-c1c(F)cccc1Cl (stereo not shown) [compound 131]	100%	98%	100%	98%	–	–	–	–
Cn1nc(Br)c(C(O)c2ccc(F)cc2Br)c1-c1c(F)cccc1Cl (stereo not shown) [compound 132]	–	0%	–	100%	99* %	100* %	–	–
Cn1nc(Cl)c(C(O)c2ccc(F)cc2F)c1-c1c(F)cccc1Cl (stereo not shown) [compound 133]	100%	100%	100%	99%	–	–	–	–
Cn1nc(Cl)c(C(O)c2ccc(F)cc2Br)c1-c1c(F)cccc1Cl (stereo not shown) [compound 134]	100%	100%	100%	99%	–	–	–	–
Cn1nc(Cl)c(C(O)c2ccc(F)cc2Cl)c1-c1c(F)cccc1Cl (stereo not shown) [compound 135]	100%	100%	100%	99%	–	–	–	–
Cn1nc(Cl)c(C(O)c2ccc(F)cc2Br)c1-c1c(F)cccc1F (stereo not shown) [compound 136]	100%	100%	100%	100%	–	–	–	–
Cn1nc(Cl)c(C(O)c2ccc(F)cc2Cl)c1-c1c(F)cccc1F (stereo not shown) [compound 137]	100%	100%	100%	100%	–	–	–	–
COc1nn(C)c(-c2c(F)cccc2F)c1C(O)c1c(F)ccc(F)c1F (stereo not shown) [compound 138]	–	–	–	–	55* %	16* %	66* %	93* %
COc1nn(C)c(-c2c(F)cccc2F)c1C(O)c1c(F)ccc(F)c1Cl (stereo not shown) [compound 139]	–	–	–	–	80* %	100* %	83* %	96* %
Cc1nn(C)c(-n2ccnc2C)c1C(O)c1ccc(F)cc1F (stereo not shown) [compound 146]	17%	0%	18%	0%	–	–	–	–
Cc1cc(F)ccc1C(O)c1c(C)nn(C)c1-n1ccnc1C (stereo not shown) [compound 147]	–	–	–	–	17* %	0* %	0* %	0* %
Cn1nc(Br)c(C(O)c2ccc(F)cc2Cl)c1-c1c(F)cccc1Cl (stereo not shown) [compound 148]	100%	100%	100%	99%	–	–	–	–
Cc1cc(F)ccc1C(O)c1c(Br)nn(C)c1-c1c(F)cccc1Cl (stereo not shown) [compound 149]	100%	100%	100%	100%	–	–	–	–

Compound	Test E2 rating (% disease control) [1, 3]	Test A rating (% disease control) (Botrytis cinerea; [4])	Test D rating (% disease control) (Septoria tritici; [3])	Test F rating (% disease control) [2, 3]	Test E2 rating (% disease control) [1, 5]	Test D rating (% disease control) (Septoria tritici; [5])	Test A rating (% disease control) (Botrytis cinerea; [5])	Test F rating (% disease control) [2, 5]
Cc1cc(F)ccc1C(O)c1c(C)nn(C)c1-n1ccnc1Cl (stereo not shown) [compound 150]	9%	8%	0%	0%	–	–	–	–
Cc1nn(C)c(-n2ccnc2Cl)c1C(O)c1ccc(F)cc1F (stereo not shown) [compound 151]	99%	16%	0%	43%	–	–	–	–
COc1nn(C)c(-c2c(F)cc(F)cc2F)c1C(O)c1ccc(F)cc1Cl (stereo not shown) [compound 152]	–	–	–	–	100* %	100* %	100* %	100* %
COc1nn(C)c(-c2c(F)cc(F)cc2F)c1C(O)c1ccc(F)cc1F (stereo not shown) [compound 153]	–	–	–	–	100* %	100* %	100* %	100* %
COc1nn(C)c(-c2c(F)cc(F)cc2F)c1C(O)c1ccccc1F (stereo not shown) [compound 154]	100%	100%	100%	100%	–	–	–	–
COc1nn(C)c(-c2c(F)cc(F)cc2F)c1C(O)c1c(F)cccc1Cl (stereo not shown) [compound 155]	–	–	–	–	100* %	100* %	99* %	99* %
COc1nn(C)c(-c2c(F)cccc2F)c1C(O)c1ccc(F)cc1F (stereo not shown) [compound 156]	–	–	–	–	99* %	100* %	100* %	99* %
Cc1cc(C)n(-c2c(C(O)c3ccc(F)cc3C)c(C)nn2C)n1 (stereo not shown) [compound 158]	0%	0%	8%	13%	–	–	–	–
Cc1cc(C)n(-c2c(C(O)c3ccc(F)cc3F)c(C)nn2C)n1 (stereo not shown) [compound 159]	0%	0%	0%	0%	–	–	–	–
COc1ccc(C(O)c2c(OC)nn(C)c2-c2c(F)cccc2F)c(F)c1 (stereo not shown) [compound 161]	–	–	–	–	92* %	100* %	94* %	90* %
COc1nn(C)c(-c2c(F)cc(Cl)cc2F)c1C(O)c1ccc(F)cc1Cl (stereo not shown) [compound 162]	–	–	–	–	86* %	100* %	99* %	64* %
Cn1nc(Br)c(C(O)c2ccc(Cl)cc2Cl)c1-c1c(F)cccc1F (stereo not shown) [compound 163]	100%	100%	100%	98%	–	–	–	–
Cn1nc(Br)c(C(O)c2ccc(F)cc2Br)c1-c1ccc(F)cc1Cl (stereo not shown) [compound 164]	100%	100%	100%	0%	–	–	–	–
Cc1cc(F)ccc1C(O)c1c(Br)nn(C)c1-c1c(F)cccc1F (stereo not shown) [compound 165]	100%	100%	100%	100%	–	–	–	–
Cc1nn(C)c(-c2c(F)cncc2F)c1C(O)c1ccc(F)cc1Cl (stereo not shown) [compound 166]	–	–	–	–	99* %	100* %	99* %	93* %
Cc1nn(C)c(-c2c(Cl)cncc2Cl)c1C(O)c1ccc(F)cc1F (stereo not shown) [compound 167]	–	–	–	–	0* %	58* %	0* %	0* %
Cc1nn(C)c(-c2c(F)cncc2F)c1C(O)c1ccc(F)cc1F (stereo not shown) [compound 168]	–	–	–	–	88* %	100* %	21* %	100* %
